Drawing on ChEMBL document CHEMBL4190217, “Botrysphones A-C and Botrysphins A-F, Triketides and Diterpenoids from the Fungus Botrysphaeria laricina” (J Nat Prod, 2017), this text covers IC50 and Activity for seven compounds.

Holding throughout (type): cell-based
Data set [1] is described as follows: Cytotoxicity against mouse Hepa1c1c7 cells assessed as reduction in cell viability by MTT assay. As to conditions: Hepa-1c1c7. On the technique in general: Tetrazolium dyes change colour on reduction, which living cells bring about.
A short description of data set [2]: Cytotoxicity against mouse Hepa1c1c7 cells assessed as reduction in cell viability at 2.5 uM by MTT assay.
A short description of data set [3]: Cytotoxicity against mouse Hepa1c1c7 cells assessed as reduction in cell viability at 0.125 uM by MTT assay.

For the compound `COC1=CC(=O)[C@@H]2O[C@@H]2[C@@H]1O`, the IC50 in data set [1] was over 50 µM.

Turning to `C=C[C@@]1(C)CC(=O)C2=C(CC[C@H]3C(C)(C)CCC[C@]23C)[C@H]1O`, in data set [1], the IC50 is over 50 µM.

On to `C=C[C@@]1(C)CCC2=C(C(=O)C(O)=C3C(C)(C)CCC[C@]23C(=O)O[C@H]2C(=O)C=C(OC)[C@@H](O)[C@H]2O)[C@H]1O`, for which the IC50 in data set [1] was 45.3 µM. The Activity entry in data set [2] is reported as “Non-Toxic”.

On to `COC1=CC(=O)[C@H](Cl)[C@H](O)[C@@H]1O`, for which the half-maximal inhibitory concentration (IC50) in data set [1] is over 50 µM.

Turning to `C=C[C@]1(C)C=C2C(=O)[C@@]3(O)OC(=O)[C@@]4(CCCC(C)(C)[C@H]34)[C@@]2(O)CC1` [SPHAEROPSIDIN A], the IC50 in data set [1] stood at 2.1 µM. Further, in data set [3], the Activity result is “Non-Toxic”.

Regarding `C=C[C@]1(C)C=C2[C@@H](O)[C@@]3(O)OC(=O)[C@@]4(CCCC(C)(C)[C@H]34)[C@@]2(O)CC1` [SPHAEROPSIDIN B], in data set [1], the IC50 was over 50 µM.

With `C[S+]([O-])CCCCN=C=S` (centres undefined) [SULFORAPHANE], the IC50 in data set [1] stood at 15.7 µM.

One may read the IC50 as the concentration that inhibits the measured activity by half.
